Two molecules from EP1551873B1, “AGONISTS AND ANTAGONISTS OF THE HUMAN ODORANT RECEPTOR OR17-4 AND USES THEREOF” (Symrise AG, priority 2002, dated 2004) can be followed below.

Entries after “also recorded” stand apart in the source; their conditions may differ.

In one assay the test system is hOR17-4. The assay is described as follows: Ca2+ imaging (Fura-2) of HEK293 cells transiently transfected with pOR17-4 (chimeric receptor). Type of assay: cell-based, human. The text has this: Es wird vermutet, dass die Transmembrandomänen III-VI eine Bindungstasche zum Binden von Agonisten bilden (s. S. Firestein, Nature 413, 211-218 (2001)). Um diese Vermutung für den Rezeptor hOR17-4 zu überprüfen wurde ein für die vermuteten Transmembrandomänen III bis VI codierender Abschnitt der für hOR17-4 codierenden cDNA in einem Shuttle-Expressions-Vektor (pOLF-Express) kloniert. Der Expressionsvektor pOLF-Express umfasst die für die N- und C-terminalen Regionen von hOR17-40 codierenden DNA-Abschnitte (C. H. Wetzel et al., Journal of Neuroscience 19, 7426-7433 (1999)). Das resultierende chimäre Rezeptorprotein sollte die Agonistenspezifität des vollständigen Rezeptors hOR17-4 besitzen.
HEK293-Zellen wurden in MEM (Life Technologies, Gaithersburg, MD), das mit 10 % hitze-inaktiviertem fetalem Kälber-Serum angereichert war, in einem Inkubator bei 37 °C in einer Atmosphäre aus 95 % befeuchteter Luft und 5 % CO2 kultiviert. Semikonfluente Zellen wurden in 35 mm Gefäßen (Falcon) mittels Calciumphosphat-Präzipitation (Zufall et al., PNAS 90 (1993), 9335-9339) unter Verwendung jeweils des Plasmids pOR17-4 bzw. pOR17-4v transfiziert. Die Transfektionseffizienz - typischerweise 10 % - wurde histochemisch mit dem Reporterplasmid pCH110 (Pharmacia, Uppsala, Schweden) überprüft, das für β-Galactosidase codiert. Messungen wurden 48 bis 72 Stunden nach der Transfektion durchgeführt. Die Transfektionseffizienz kann mit einem für GFP, einem grün fluoreszierenden Protein, codierenden Reporterplasmid ebenfalls überprüft werden.
Die Rezeptor-Aktivierung in HEK293-Zellen führt zu einem vorübergehenden Anstieg der cytosolischen Ca^2+-Konzentration, die auf der Einzelzell-Ebene unter Verwendung des Ca^2+-sensitiven Farbstoffes Fura-2 (Fura-2 AM, Molecular Probes Europe BV, Leiden, Niederlande; Ladekonzentration 3-4 µg/ml; Ladezeit ca. 30 min) und ratiofluorometrischen Bildgebungstechniken (Imaging-Experimente) detektiert wurden.
Die Ca^2+-imaging-Experimente wurden auf dem Träger eines invertierten Zeiss-Mikroskopes durchgeführt, das für die ratiofluorometrische Bildgebung mit einer Xenon-Bogenlampe, einem Vielfach-Wellenlängen-Illuminations-System POLYCH-ROM II zur Anregung, einer gekühlten charge-coupled device (CCD)-Kamera und einer WinNT-basierten T.I.L.L.-Vision-Software zum Sammeln und raum- und zeitabhängigen Quantifizieren Ca^2+-abhängiger Fluoreszenz-Signale (F340/F380-Verhältnis) ausgestattet war. HEK293-Zellen wurden mit 32-facher, Spermazellen mit 63-facher Vergrößerung beobachtet.
HEK293- und Spermazellen wurden unter Verwendung eines speziellen Applikations-Systems, das es gestattete, vorübergehend alle Zellen im Blickfeld aus einem von sechs benutzergewählten Kapillarröhrchen zu überspülen, Geruchs- und/oder Wirkstoffen (Testlösungen) ausgesetzt. Der Wechsel zwischen den Testlösungen erfolgte nahezu sofort; auch trat im Wesentlichen keine Wirkungsverzögerung nach dem Wechsel auf, weil die Röhrchenspitzen zum optischen Feld eng benachbart waren. Zwischen den Applikationen von Testlösungen überspülte ein Pufferlösungsstrom kontinuierlich alle Zellen im Gefäß, um jedwede potentielle Hintergrund-Anreicherung von Testlösungen (Geruchs- bzw. Wirkstoffen) zu minimieren. Alle Lösungen wurden bei Raumtemperatur appliziert. Alle verwendeten Geruchsstoffe stammten von Dr. T. Gerke, Henkel KGaA, Düsseldorf, FRG, andere Wirkstoffe wurden von Sigma gekauft. Zur Zusammensetzung der Henkel 100-Mischung vergleiche C. H. Wetzel et al., Journal of Neuroscience 19, 7426-7433 (1999).
Alle auf die potentielle Aktivierung von hOR17-4 untersuchten Geruchsstoffe wurden wenigstens in drei verschiedenen Reihen von Transfektionsexperimenten getestet. […] Geruchsstoffe, die nicht in wenigstens 2 % aller HEK293-Zellen messbare Ca^2+-Konzentrationssteigerung auslösten, wurden nicht zu den hOR17-4-spezifischen Agonisten gezählt, ebenso diejenigen wenigen der untersuchten Komponenten, die ein unspezifisches Ca^2+-Signal in fast jeder Zelle hervorriefen. […]

The test system of the next assay is humane Spermien. The assay is described as follows: Sperm activation bioassay: swimming speed by computer-assisted video motion analysis (CAVMA). Type of assay: cell-based, human. As to the method:
Gefrorene Samenproben von fünf gesunden Spendern wurden aus der California Cryobank (Los Angeles, CA, USA) erhalten und für Bioassays gemäß den World Health Organization-Richtlinien (World Health Organization: Laboratory for the examination of human serum and semen-cervical mucus interaction, Cambridge University Press (1993)) vorbereitet. Nachdem die Suspensionen auf 37 °C für 10 Minuten gebracht worden waren, wurde jede Probe in HEPES-gepufferter humaner Tubarflüssigkeit (HTF; Irvine Scientific, Santa Ana, CA, USA) überführt und auf 10^7 Zellen/ml eingestellt. Die Lösungen wurden dann bei 37 °C in einer 5 %-igen CO2-Atmosphäre aufbewahrt und innerhalb von 30 Minuten für Experimente verwendet (P. Quinn, Journal of Assisted Reproductive Genetics 12, 97-105 (1995)). Die Reaktionen von Sperma auf Bourgeonal wurde (a) durch computer-assisted video motion analysis (CAVMA) gemessen, um Veränderungen in der Schwimmgeschwindigkeit (Spermaaktivierung) zu detektieren, und (b) in einem flat capillary-Assay für die Chemotaxis in der Nähe einer Diffusionsmaterialquelle untersucht. Für jede Test-oder Kontroll-Behandlung wurden fünf wiederholte Experimente unter Verwendung von Sperma der fünf Spender durchgeführt. Die Daten der Bioassays wurden statistisch durch Ein-Weg-Varianzanalyse (ANOVA) unter Verwendung eines post-hoc Scheffe-Tests (R. W. Day and G. P. Quinn, Ecol. Monogr. 59, 433-463 (1989)) analysiert. Eine Bonferroni-Korrektur wurde zum Angleichen der α-Levels für multiple Vergleiche verwendet.
Zur Untersuchung der Spermien-Aktivierung wurden Bioassays für die Schwimmgeschwindigkeit bei 37 °C durchgeführt. Spermien wurden sanft einer Kontroll- oder Testlösung einheitlicher Konzentration zugefügt. Die Bilder von Spermien (3,0 x 10^3 Zellen/ml) wurden dann unter Verwendung einer Videokamera (NEC Modell TI 23A), die auf einem Olympus IX70-Lichtmikroskop montiert war, bei 90-facher Vergrößerung aufgenommen. Um mögliche Artefakte durch Reibungskräfte zu minimieren, besaß die Kamera eine 100 µm Feldtiefe und fokussierte auf eine Region, die annäherend 2 mm von der nächsten Oberfläche entfernt war. Videobilder von Spermien wurden mit 30 Bildern/Sekunde digitalisiert und über 10-Sekundenintervalle unter Verwendung eines CAVMA-Systemes (Motion Analysis Corporation, Modell VP 320, Expert Vision und Benutzter-Software), verbunden mit einer Sun SPARC 2 Computer-Arbeitsstation bearbeitet (J. A. Riffell, P. J. Krug, R. K. Zimmer, Journal of Experimental Biology 205, 1439-1450 (2002)). Die Schwimmgeschwindigkeit wurde auf einer Bild-zu-Bild-Basis bestimmt und danach über jeden einzelnen zurückgelegten Weg gemittelt. Um zu vermeiden, sich horizontal anstatt vertikal bewegende Zellen zu messen, wurden kurze Wege mit weniger als 11 Bildern verworfen, bei denen sich die Spermien um mehr als 20 % in ihrer scheinbaren Größe veränderten.

As to `CCCCCCCCCCC=O` [n-Undecanal], the “Zellen, die auf Bourgeonal antworteten, mit vollständig inhibierter Rezeptoraktivierung” value in the assay with hOR17-4 (pre-incubation 30 s or longer before Bourgeonal) came out at 26 von 28. Further, the “Einfluss auf die hOR17-4-Rezeptoraktivierung durch Bourgeonal” value with hOR17-4 (single components of Mix D, pre-incubation) was “vollständig inhibiert”. Also, in the assay on humane Spermien (10^-7 M alone, P > 0,99), the “Effekt auf das Spermienverhalten, Schwimmgeschwindigkeit” value is given as “keinen messbaren Effekt”. Also, in the assay with humane Spermien (co-applied with 10^-6, 10^-7 or 10^-8 M n-Undecanal, P > 0,99), the “Schwimmgeschwindigkeit als Antwort auf 10^-7 M Bourgeonal relativ zur HTF-Kontrolle” value is “nicht signifikant erhöht”.

With `CC(C)(C)c1ccc(CCC=O)cc1` [Bourgeonal], in the assay with hOR17-4 (agonist concentration reduced to 10^-6 M), the “Induktion einer Ca^2+-Konzentrationssteigerung” value is on record as “deutlich”. In the assay on hOR17-4 (ranking by amplitude normalised to ATP and by responding cells relative to Cyclamal ca. 5 mM), the “Wirksamkeit (Rangordnung der Agonisten)” value is reported as “wirksamere Agonisten; also recorded: der wirksamste getestete Agonist”. The “Rezeptoraktivierung (Ca^2+-Antwort)” value with hOR17-4 (single odorant about 500 µM, pOR17-4-transfected HEK293 cells) is listed as “Fähigkeit der Substanzen, den Rezeptor zu aktivieren”. For the same molecule, the “Konzentration ohne weiteren Anstieg der Schwimmgeschwindigkeit” value with humane Spermien was > 10^-6 M. The EC50 in the assay with humane Spermien (Homo sapiens, Sperm, 37 °C, read-out: ED50 (Konzentration, die die halbmaximale Antwort hervorruft), Schwimmgeschwindigkeit) was found to be 30 nM. Besides, the “Konzentrationen mit signifikanten Antworten im Verhältnis zur HTF-Kontrolle, Schwimmgeschwindigkeit” value in the assay on humane Spermien (Scheffé test P ≤ 0,03) is ≥ 10^-8 M.
